Assay results reported in EPA's ToxRefDB 2.

Legend:
dog = conditions: Sub-acute repeat dose toxicity, beagle, Oral, Gavage/Intubation, dose end: 28 day, group: systemic
rat [1] = conditions: Sub-acute repeat dose toxicity, Oral, Gavage/Intubation, dose end: 7 day, group: systemic
rat [2] = conditions: Sub-acute repeat dose toxicity, Oral, Gavage/Intubation, dose end: 28 day, group: systemic
rat [3] = conditions: Prenatal developmental toxicity study, sprague dawley, Oral, Gavage/Intubation, dose end: 15 GD
rat [4] = conditions: Subchronic oral toxicity in rodents, fischer, Gavage/Intubation, dose end: 13 week, group: systemic, systemic / pathology microscopic / kidney / degeneration
mouse [5] = conditions: Subchronic oral toxicity in rodents, b6c3f1, Gavage/Intubation, dose end: 13 week, group: systemic, systemic / pathology microscopic / liver / [other] + systemic / pathology microscopic / liver / cytomegaly + systemic / pathology …
rat [6] = conditions: Subchronic oral toxicity in rodents, fischer, Gavage/Intubation, dose end: 13 week, group: systemic, systemic / in life observation / body weight / body weight gain + systemic / pathology microscopic / kidney / [other] + systemic / pathology…
mouse [7] = conditions: Subchronic inhalation toxicity, other, Whole-Body, dose end: 13 week, group: systemic
mouse [8] = conditions: Carcinogenicity; b6c3f1; Oral; Gavage/Intubation; dose end: 103 week; group: systemic; systemic / pathology microscopic / kidney / [other] + systemic / pathology microscopic / kidney / degeneration + systemic / pathology …
mouse [9] = conditions: Combined chronic toxicity/carcinogenicity, other, Inhalation, Whole-Body, dose end: 24 month, group: systemic
mouse [10] = conditions: Subchronic oral toxicity in rodents, B6C3F1, Gavage/Intubation, dose end: 13 week, group: systemic, systemic / pathology microscopic / liver / cytomegaly
rat [11] = conditions: Carcinogenicity; fischer; Oral; Gavage/Intubation; dose end: 2 year; group: systemic; systemic / pathology microscopic / kidney / casts + systemic / pathology microscopic / kidney / degeneration + systemic / pathology …
rat [12] = conditions: Combined chronic toxicity/carcinogenicity, fischer, Inhalation, Whole-Body, dose end: 24 month, group: systemic
rat [13] = conditions: Subchronic inhalation toxicity, fischer, Whole-Body, dose end: 13 week, group: systemic
mouse [14] = conditions: Subchronic oral toxicity in rodents, b6c3f1, Gavage/Intubation, dose end: 13 week, group: systemic
rat [15] = conditions: Combined chronic toxicity/carcinogenicity; fischer; Oral; Gavage/Intubation; dose end: 103 week; group: systemic; systemic / in life observation / clinical signs / lethargy + systemic / pathology microscopic / stomach / inflammation + systemic / …
rat [16] = conditions: Sub-acute repeat dose toxicity; fischer; Oral; Gavage/Intubation; dose end: 16 day; group: systemic; systemic / in life observation / body weight / body weight gain
rat [17] = conditions: Multigenerational reproductive toxicity study, sprague dawley, Oral, Feed, dose end: 2 generation
mouse [18] = conditions: Sub-acute repeat dose toxicity, b6c3f1, Oral, Gavage/Intubation, dose end: 16 day, group: systemic
rat [19] = conditions: Subchronic oral toxicity in rodents, fischer, Gavage/Intubation, dose end: 13 week, group: systemic
mouse [20] = conditions: Carcinogenicity, b6c3f1, Oral, Gavage/Intubation, dose end: 103 week, group: systemic
mouse [21] = conditions: Carcinogenicity, b6c3f1, Oral, Feed, dose end: 80 week, group: systemic
rat [22] = conditions: Subchronic oral toxicity in rodents, other, Feed, dose end: 13 week
rat [23] = conditions: Developmental neurotoxicity study; fischer; Oral; Feed; dose end: 114 PND; group: cannot be grouped; systemic / in life observation / body weight / offspring (pup) weight
rat [24] = conditions: Developmental neurotoxicity study; fischer; Injection; Subcutaneous; dose end: 21 PND; group: cannot be grouped; systemic / in life observation / body weight / offspring (pup) weight + systemic / in life observation / clinical signs / tremors
rat [25] = conditions: Carcinogenicity; other; Oral; Feed; dose end: 80 week; group: systemic; systemic / in life observation / body weight / body weight + systemic / in life observation / clinical signs / anemia + systemic / in life …
[26] = systemic / in life observation / body weight / body weight + systemic / in life observation / clinical signs / dialated pupils + systemic / …
[27] = systemic / in life observation / clinical signs / dialated pupils + systemic / in life observation / clinical signs / distended abdomens + …
[28] = systemic / clinical chemistry / [other] / [other] + systemic / clinical chemistry / albumin / albumin + systemic / clinical chemistry / …
[29] = systemic / in life observation / clinical signs / salivation
[30] = systemic / clinical chemistry / alanine aminotransferase (alt/sgpt) / alanine aminotransferase (alt/sgpt) + systemic / clinical chemistry / …
[31] = systemic / in life observation / clinical signs / lacrimation or red-colored tears + systemic / in life observation / clinical signs / …
[32] = group: developmental, developmental / developmental malformation / bone / supernumerary + systemic / in life observation / body weight / fetal weight
[33] = group: maternal, systemic / in life observation / body weight / body weight gain + systemic / in life observation / food consumption / food consumption
[34] = systemic / in life observation / body weight / body weight + systemic / organ weight / liver / relative to body weight
[35] = systemic / pathology microscopic / liver / hepatoblastoma + systemic / pathology microscopic / liver / hepatocellular adenoma + systemic / …
[36] = systemic / organ weight / liver / absolute + systemic / organ weight / liver / relative to body weight + systemic / pathology microscopic / …
[37] = systemic / in life observation / body weight / body weight
[38] = systemic / in life observation / clinical signs / fur (altered appearance) + systemic / in life observation / clinical signs / lethargy
[39] = systemic / in life observation / clinical signs / fur (altered appearance) + systemic / in life observation / clinical signs / lethargy + …
[40] = group: offspring, systemic / in life observation / body weight / offspring (pup) weight
[41] = group: parental, systemic / in life observation / body weight / body weight + systemic / in life observation / body weight / body weight gain + systemic / …
[42] = group: parental, systemic / organ weight / kidney / relative to body weight
[43] = systemic / in life observation / clinical signs / lethargy + systemic / in life observation / mortality / mortality
[44] = systemic / organ weight / liver / absolute + systemic / organ weight / liver / relative to body weight
[45] = systemic / in life observation / clinical signs / lethargy + systemic / in life observation / body weight / body weight
[46] = systemic / in life observation / clinical signs / lethargy + systemic / in life observation / body weight / body weight + systemic / …
[47] = systemic / pathology microscopic / liver / hyperplasia
[48] = systemic / pathology microscopic / liver / hyperplasia + systemic / pathology microscopic / liver / hepatocellular carcinoma + systemic / in…
[49] = group: maternal, reproductive / reproductive performance / mating / mating
[50] = group: systemic, systemic / organ weight / kidney / absolute + systemic / organ weight / kidney / relative to body weight + systemic / organ weight / liver…

## CSc1ccc(Oc2ccc(S(N)(=O)=O)cc2CN(C)C)cc1C
dog; [26]
  LOAEL: > 40 mg/kg/day
  NOAEL: ≥ 40 mg/kg/day
dog; [27]
  LEL: 4 mg/kg/day
  NEL: < 4 mg/kg/day
Rat [1]; [28]
  LOAEL: > 1000 mg/kg/day
  NOAEL: ≥ 1000 mg/kg/day
Rat [1]; [29]
  LEL: 250 mg/kg/day
  NEL: < 250 mg/kg/day
Rat [2]; [30]
  LOAEL: > 500 mg/kg/day
  NOAEL: ≥ 500 mg/kg/day
Rat [2]; [31]
  LEL: 5 mg/kg/day
  NEL: < 5 mg/kg/day

## Clc1ccc(Cl)cc1 [1,4-Dichlorobenzene]
Rat [3]; group: developmental, developmental / developmental malformation / bone / supernumerary
  LEL: 500 mg/kg/day
Rat [3]; [32]
  LOAEL: > 1000 mg/kg/day
  NEL: 250 mg/kg/day
  NOAEL: ≥ 1000 mg/kg/day
Rat [3]; [33]
  LEL: 500 mg/kg/day
  LOAEL: > 1000 mg/kg/day
  NEL: 250 mg/kg/day
  NOAEL: ≥ 1000 mg/kg/day
Rat [4]
  LEL: 300 mg/kg/day
  LOAEL: 300 mg/kg/day
  NEL: 150 mg/kg/day
  NOAEL: 150 mg/kg/day
Mouse [5]
  LEL: 600 mg/kg/day
  LOAEL: 600 mg/kg/day
  NEL: < 600 mg/kg/day
  NOAEL: < 600 mg/kg/day
Rat [6]
  LEL: 300 mg/kg/day
  LOAEL: 300 mg/kg/day
  NEL: < 300 mg/kg/day
  NOAEL: < 300 mg/kg/day
Mouse [7]; [34]
  LEL: 25 ppm
  NEL: < 25 ppm
Mouse [7]; systemic / organ weight / liver / absolute + systemic / organ weight / liver / relative to body weight + systemic / clinical chemistry / …
  NOAEL: 120 ppm
Mouse [7]; systemic / organ weight / liver / relative to body weight + systemic / organ weight / liver / absolute + systemic / pathology microscopic / …
  LOAEL: 270 ppm
Mouse [8]
  LEL: 300 mg/kg/day
  LOAEL: 300 mg/kg/day
  NEL: < 300 mg/kg/day
  NOAEL: < 300 mg/kg/day
Mouse [9]; [35]
  LOAEL: > 300 ppm
  NOAEL: ≥ 300 ppm
Mouse [9]; systemic / pathology microscopic / liver / hepatoblastoma + systemic / pathology microscopic / liver / hepatocellular carcinoma + systemic…
  NEL: 20 ppm
Mouse [9]; systemic / pathology microscopic / nose / metaplasia
  LEL: 75 ppm
Mouse [10]
  LEL: 675 mg/kg/day
  LOAEL: 675 mg/kg/day
  NEL: 338 mg/kg/day
  NOAEL: 338 mg/kg/day
Rat [11]
  LEL: 150 mg/kg/day
  LOAEL: 150 mg/kg/day
  NEL: < 150 mg/kg/day
  NOAEL: < 150 mg/kg/day
Rat [12]; [36]
  LOAEL: > 300 ppm
  NEL: 20 ppm
  NOAEL: ≥ 300 ppm
Rat [12]; systemic / pathology microscopic / nose / [other]
  LEL: 75 ppm
Rat [13]; [37]
  LEL: 25 ppm
  NEL: < 25 ppm
Rat [13]; systemic / in life observation / body weight / body weight + systemic / organ weight / kidney / absolute + systemic / organ weight / kidney…
  NOAEL: 120 ppm
Rat [13]; systemic / organ weight / kidney / absolute + systemic / organ weight / kidney / relative to body weight + systemic / pathology microscopic…
  LOAEL: 270 ppm

## S=c1[nH]c2ccccc2s1 [2-Mercaptobenzothiazole]
Mouse [14]; [38]
  LEL: 375 mg/kg/day
  LOAEL: 375 mg/kg/day
Mouse [14]; [39]
  NEL: 188 mg/kg/day
  NOAEL: 188 mg/kg/day
Rat [15]
  LEL: 188 mg/kg/day
  LOAEL: 188 mg/kg/day
  NEL: < 188 mg/kg/day
  NOAEL: < 188 mg/kg/day
Rat [16]
  LEL: 2500 mg/kg/day
  LOAEL: > 2500 mg/kg/day
  NEL: 1250 mg/kg/day
  NOAEL: ≥ 2500 mg/kg/day
Rat [17]; [40]
  LEL: 194 mg/kg/day
  LOAEL: 194 mg/kg/day
  NEL: < 194 mg/kg/day
  NOAEL: < 194 mg/kg/day
Rat [17]; [41]
  LOAEL: 695 mg/kg/day
  NOAEL: 194 mg/kg/day
Rat [17]; [42]
  LEL: 218 mg/kg/day
  NEL: < 218 mg/kg/day
Mouse [18]; systemic / in life observation / clinical signs / lethargy
  LOAEL: 1500 mg/kg/day
Mouse [18]; [43]
  LEL: 1500 mg/kg/day
  NEL: 750 mg/kg/day
  NOAEL: 750 mg/kg/day
Rat [19]; systemic / in life observation / body weight / body weight gain + systemic / in life observation / clinical signs / irritability
  LOAEL: 750 mg/kg/day
Rat [19]; [44]
  LEL: 188 mg/kg/day
  NEL: < 188 mg/kg/day
Rat [19]; systemic / organ weight / liver / absolute + systemic / organ weight / liver / relative to body weight + systemic / in life observation / …
  NOAEL: 375 mg/kg/day
Mouse [20]; [45]
  LOAEL: 375 mg/kg/day
  NOAEL: < 375 mg/kg/day
Mouse [20]; [46]
  LEL: 375 mg/kg/day
  NEL: < 375 mg/kg/day

## O=C1C2(Cl)C3(Cl)C4(Cl)C(Cl)(Cl)C5(Cl)C3(Cl)C1(Cl)C5(Cl)C24Cl (stereo unspecified) [Kepone]
Mouse [21]; [47]
  LOAEL: 3 mg/kg/day
  NOAEL: < 3 mg/kg/day
Mouse [21]; [48]
  LEL: 3 mg/kg/day
  NEL: < 3 mg/kg/day
Rat [22]; [49]
  LEL: 1.25 mg/kg/day
  LOAEL: > 1.25 mg/kg/day
  NEL: < 1.25 mg/kg/day
  NOAEL: ≥ 1.25 mg/kg/day
Rat [22]; [50]
  LEL: 1.25 mg/kg/day
  LOAEL: > 1.25 mg/kg/day
  NEL: < 1.25 mg/kg/day
  NOAEL: ≥ 1.25 mg/kg/day
Rat [23]
  LEL: 0.05 mg/kg/day
  LOAEL: > 0.3 mg/kg/day
  NEL: < 0.05 mg/kg/day
  NOAEL: ≥ 0.3 mg/kg/day
Rat [24]
  LEL: 1 mg/kg/day
  LOAEL: > 1 mg/kg/day
  NEL: < 1 mg/kg/day
  NOAEL: ≥ 1 mg/kg/day
Rat [25]
  LEL: 0.4 mg/kg/day
  LOAEL: 0.4 mg/kg/day
  NEL: < 0.4 mg/kg/day
  NOAEL: < 0.4 mg/kg/day
